Changes are numbered by the printed parent chain.
What was measured:
IDH2 R140L_Q316E cis = molecular target: T1, IDH2 R140L_Q316E cis (Homo sapiens, UniProt P48735, Q316E/R140L); experiment: Inhibition of 2-HG production in IDH2 mutant U-87 MG cells; assay type: cell-based; settings: 16 hours incubation, 50K cells/well, 100 μl media/well, read-out: Relative IC50 (nM) Mean, inhibition of 2-HG production
T1 construct: expressed in transfected cells; host or cells: U-87 MG
T1 sequence (P48735 40-452 R140L/Q316E): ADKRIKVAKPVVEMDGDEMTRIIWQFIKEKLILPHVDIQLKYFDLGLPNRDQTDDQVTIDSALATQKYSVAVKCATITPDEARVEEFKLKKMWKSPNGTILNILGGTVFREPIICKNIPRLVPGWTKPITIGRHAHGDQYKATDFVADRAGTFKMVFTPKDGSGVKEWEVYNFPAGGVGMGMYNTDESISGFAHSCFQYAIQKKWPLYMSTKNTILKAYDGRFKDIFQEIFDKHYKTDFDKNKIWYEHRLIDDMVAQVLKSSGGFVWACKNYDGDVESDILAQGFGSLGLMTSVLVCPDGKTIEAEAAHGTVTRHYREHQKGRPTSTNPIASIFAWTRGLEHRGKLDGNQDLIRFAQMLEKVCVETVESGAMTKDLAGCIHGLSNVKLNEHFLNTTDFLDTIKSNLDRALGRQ
Experimental: (§1) Compounds and Formulation. Compound A may be synthesized as described in WO/18/111707. Compound A is prepared as a 20 mM stock in 100% DMSO (dimethyl sulfoxide) (Sigma, D2438) and diluted serially in 100% DMSO to achieve the desired concentrations. DMSO preparations are further diluted with cell culture media prior to addition in the assay.
(§2) Cell lines. U-87 MG cells (ATCC, HTB-14) are cultured and assayed in MEM (Gibco, 11095) with 2 mM GlutaMAX (Gibco, 35050), 1 mM Pyruvate (Gibco, 11360), 0.1 mM NEAA ((Non-essential amino acid) Gibco, 11140) and 10% dialyzed FBS (Fetal bovine serum) (Gibco, 26400).
(§3) Cell-based inhibition assays. Cell-based assays are performed by measuring 2-HG in U-87 MG cells in which IDH2 mutations are expressed.
(§4) DNA constructs encoding IDH2 mutations are introduced into U-87 MG cells using transfection (Promega FuGENE HD, E2311) or lentiviral transduction, and the IDH2-mutant expressing cell lines are selected using blasticidin (5 μg/ml) or puromycin (1 μg/ml). Second site mutations (Q316E, I319M, P167R, and G260A) are evaluated in cis (same monomer as driver mutation within dimer) or in trans (opposite monomer from driver mutation in dimer). For compound treatments, 12,500 or 50,000 cells per well in culture medium (150 μl or 100 μl, respectively) are plated in 96 well cell culture plates (Falcon, 353377) 2 hrs prior to treatment. Cells are treated with serial dilutions of compound A in standard growth media. Plates are incubated in a mammalian cell culture incubator (humidified, 37° C., 5% CO2) for 16 or 72 hrs. Following the incubation period, the media is aspirated and cell extracts are prepared by addition of ice-cold 80% methanol/20% water (100 μL) containing liquid chromatography-mass spectrometry (LC-MS) internal standards (1 μM ^13C4 α-KG and ^13C5 2-HG) per well for ion pairing LC-MS method. 96-well sample plates are then sealed, shaken at 450 rpm for 10 min, and then placed at −20° C. and stored until LC-MS analysis.
(§5) LC-MS metabolite analysis of conditioned media and cell lysates. The effect of inhibitors on the concentrations of 2-HG are determined by LC-MS analysis of cell lysates using an ion-pairing method as described below.
(§6) Calibration curves are prepared by spiking 2-HG and α-KG into 80% methanol/20% water containing LC-MS internal standards (1 μM ^13C4 α-KG and 1 μM ^13C5 2-HG). The quantitation of 2-HG and α-KG is accomplished using an AB Sciex 6500 mass spectrometer with an Electrospray Ionization (ESI) probe and interfaced with an Ultra Performance Liquid Chromatography (UHPLC) system in the negative multiple-reaction monitoring (MRM) mode. The UHPLC system consists of an Agilent 1290 binary pump, thermostatted column compartment (TCC), and sampler. The injection volume is 1 μL for cell culture extracts. The extracts are chromatographically resolved using a Hypercarb column, 2.1×20 mm, […] Javelin HTS (Thermo Scientific, PN: 35005-022135). Mobile phase A is water/10 mM tributylamine/15 mM acetic acid. Mobile phase B is acetonitrile/20 mM tributylamine/30 mM acetic acid. The solvent flow rate is 1.0 mL/min. The isocratic condition is kept at 26% mobile phase B. The valve, sample loop, and needle are washed with 50% acetonitrile: 50% methanol for 20 seconds. The column temperature is kept at 55° C. Calibration curves are calculated by least-square linear regression with 1/x weighting. 2-HG and α-KG are quantified using standard curve and ratio of the peak area of analytes to internal standard. Data analysis is performed using MultiQuant 3.0 (AB Sciex). The raw data are exported to Microsoft Excel spreadsheets.
(§7) Determination of IC50 Curves. IC50 curves for each compound are obtained using four parameter data fitting analysis in GraphPad/Prism software.

IDH2 R140L_Q316E trans = molecular target: T2, IDH2 R140L_Q316E trans (Homo sapiens, UniProt P48735, Q316E/R140L); experiment: as above; assay type: cell-based; settings: 16 hours incubation, 50K cells/well, 100 μl media/well, read-out: Relative IC50 (nM) Mean, inhibition of 2-HG production
T2 construct: expressed in transfected cells; host or cells: U-87 MG
T2 sequence (P48735 40-452 R140L): T1 sequence (P48735 40-452 R140L/Q316E) with E277Q
T2 sequence (P48735 40-452 Q316E): T1 sequence (P48735 40-452 R140L/Q316E) with L101R
Experimental: as §1, §2, §3, §4, §5, §6, §7

IC50 (IDH2 R140L_Q316E cis): 145 nM
IC50 (IDH2 R140L_Q316E trans): 262 nM
Compound: C=CC(=O)N1CCN([C@@H](CC2CC2)c2ccc([C@H](C)Nc3ncc4c(n3)N(CC)C(=O)OC4)cc2)CC1 [Compound A, 7-[[(1S)-1-[4-[(1S)-2-cyclopropyl-1-(4-prop-2-enoylpiperazin-1-yl)ethyl]phenyl]ethyl]amino]-1-ethyl-4H-pyrimido[4,5-d][1,3]oxazin-2-one]
